From patent US20210094954A1, “PREPARATION METHODS AND APPLICATIONS OF 3,5-DISUBSTITUTED METHYLPYRAZOLO[1,5-A]PYRIMIDINE-7-HYDROXYLIC SALTS” (priority 2019, published 2021) come the findings set out here.

Where two headings read alike, the source gives them in different places.

The subject of test [1] is F2518(VRE), Staphylococcus aureus resistant strain 43300(MRSA), 703 (MRSA), pneumococcal resistance bacteria 6303(PRSP). Description: microbe, parasite or virus in culture. It counts as cell-based. The settings on record: read-out: MIC values (μM).
The test system of test [2] is Streptococcus agalactia B group. Description: microbe, parasite or virus in culture. It counts as cell-based. The conditions noted are these: Streptococcus; 37° C., 24 hours; read-out: MIC values of in vitro antibacterial test results.
The subject of test [3] is Bacillus anthracis Bacillus 1. Description: microbe, parasite or virus in culture. It counts as cell-based. The settings on record: Bacillus anthracis, 24 h, read-out: MIC values of in vitro antibacterial test results.
In test [4] the test system is Streptococcus pneumoniae M2. Kind of test: microbe, parasite or virus in culture. It counts as cell-based. The conditions noted are these: Streptococcus pneumoniae, M2; 37° C., 24 hours; read-out: MIC values of in vitro antibacterial test results.
Test [5] has as its system Streptococcus pneumoniae 10351. Kind of test: microbe, parasite or virus in culture. It counts as cell-based. The conditions noted are these: Streptococcus pneumoniae, 10351; 37° C., 24 hours; read-out: MIC values of in vitro antibacterial test results.
The subject of another test is Bacillus subtilis 168. Kind of test: microbe, parasite or virus in culture. The test is classed as cell-based. The conditions noted are these: Bacillus subtilis, 168; 37° C., 24 hours; read-out: MIC values of in vitro antibacterial test results.
The test system of test [6] is Staphylococcus aureus 43300 (MRSA). Description: antibacterial study in vivo, survival of infected kunming mice. The settings on record: 30 days of observation.
Another test deals with Clostridium perfringens. Kind of test: microbe, parasite or virus in culture. The settings on record: Clostridium perfringens, 24 h, read-out: MIC values of in vitro antibacterial test results. It counts as cell-based.
Test [7] deals with Staphylococcus aureus 703(MRSA). Kind of test: microbe, parasite or virus in culture. The test is classed as cell-based. The settings on record: Staphylococcus aureus, MRSA.
Test [8] deals with Staphylococcus aureus 43300(MRSA). Description: microbe, parasite or virus in culture. The settings on record: Staphylococcus aureus, MRSA. It counts as cell-based.
For the next test, the system named is Oral Candida. Kind of test: microbe, parasite or virus in culture. It counts as cell-based. The conditions noted are these: Candida.
Test [9] relates to Enterococcus faecalis F2518(VRE). Description: microbe, parasite or virus in culture. It counts as cell-based. The settings on record: Enterococcus faecalis, VRE, 24 h, read-out: MIC values of in vitro antibacterial test results.
Test [10] deals with Streptococcus pneumoniae 6303 (PRSP). Kind of test: microbe, parasite or virus in culture. The test is classed as cell-based. The conditions noted are these: Streptococcus pneumoniae, PRSP, 24 h, read-out: MIC values of in vitro antibacterial test results.
For the next test, the system named is Bacillus cereus 2. Kind of test: microbe, parasite or virus in culture. The test is classed as cell-based. The conditions noted are these: Bacillus cereus, 2; 37° C., 24 hours; read-out: MIC values of in vitro antibacterial test results.
For another test, the system named is Peel fungus. Kind of test: organism not typed. It counts as cell-based. The settings on record: 37° C., 24 hours; read-out: MIC values of in vitro antibacterial test results.
Another test concerns Diphtheria bacilli. Description: organism not typed. It counts as cell-based. The settings on record: 37° C., 24 hours; read-out: MIC values of in vitro antibacterial test results.
Test [11] deals with Enterococcus faecalis 29212. Kind of test: microbe, parasite or virus in culture. It counts as cell-based. The conditions noted are these: Enterococcus faecalis, 29212; 37° C., 24 hours; read-out: MIC values of in vitro antibacterial test results.
Test [12] has as its system Staphylococcus aureus 29231. Kind of test: microbe, parasite or virus in culture. The settings on record: Staphylococcus aureus, 29231; 37° C., 24 hours; read-out: MIC values of in vitro antibacterial test results. It counts as cell-based.
Where [13] appears, read: 24 h, read-out: MIC values of in vitro antibacterial test results.
Setting [14] is: 37° C., 24 hours, read-out: MIC values of in vitro antibacterial test results.

As to `Cc1nn2c([O-])cc(-c3ccc([N+](=O)[O-])cc3)nc2c1-c1ccc(F)cc1F.[Na+]` [Compound 3, Sodium 3-(2,4-difluorophenyl)-2-methyl-5-(4-nitrophenyl) pyrazolo[1,5-α]pyrimidin-7-olate], the MIC in test [1] is under 100 µg/mL; in [2], over 150 µg/mL; in [3], over 150 µg/mL; in [4], under 100 µg/mL; in test [5], under 100 µg/mL; in the test on Bacillus subtilis 168, under 100 µg/mL. Besides, the MIC in the test on Clostridium perfringens was over 150 µg/mL; in [7] (setting [13]), under 50 µg/mL; in [7] (read-out: MIC values (μM)), under 50 µg/mL; in test [8] (setting [13]) it was under 50 µg/mL; in test [8] (read-out: MIC values (μM)) it was under 50 µg/mL; in the test with Oral Candida (setting [14]) it was over 150 µg/mL. Further, the MIC in test [9] was under 150 µg/mL; in [10], under 100 µg/mL; in the test on Bacillus cereus 2, under 100 µg/mL; in the test with Peel fungus, over 150 µg/mL; in the test on Diphtheria bacilli, over 150 µg/mL; in test [11] it was under 100 µg/mL. The MIC in test [12] is under 100 µg/mL. Further, in test [6] (dosage 30 mg/kg), the “Survival days” value came to 4.0 days.

For `Cc1nn2c([O-])cc(-c3ccc(S(N)(=O)=O)cc3)nc2c1-c1ccc(F)cc1F.[Na+]` [Compound 9, Sodium 3-(2,4-difluorophenyl)-2-methyl-5-(4-sulfamoylphenyl)pyrazolo[1,5-α]pyrimidin-7-olate], the MIC in [1] was under 100 µg/mL; in test [2], under 150 µg/mL; in [3], over 150 µg/mL; in test [4], under 100 µg/mL; in test [5], under 100 µg/mL; with Bacillus subtilis 168, under 100 µg/mL. Also, the MIC in the test on Clostridium perfringens was over 150 µg/mL; in test [7] (setting [13]), under 100 µg/mL; in test [8] (setting [13]) it was under 100 µg/mL; in the test on Oral Candida (read-out: MIC values (μM)), under 100 µg/mL; in the test with Oral Candida (setting [14]) it was under 100 µg/mL; in test [9] it was under 150 µg/mL. Moreover, the MIC was under 150 µg/mL in test [10]; under 150 µg/mL with Bacillus cereus 2; over 150 µg/mL in the test on Peel fungus; over 150 µg/mL in the test with Diphtheria bacilli; under 100 µg/mL in [11]; under 100 µg/mL in [12]. Also, the “Survival days” value in test [6] (dosage 25 mg/kg) is given as 3.0 days.

Turning to `Cc1nn2c([O-])cc(-c3ccc(Oc4ccccc4)nc3)nc2c1-c1ccc(F)cc1F.[Na+]` [Compound 30, Sodium 3-(2,4-difluorophenyl)-2-methyl-5-(6-phenoxypyridin-3-yl)pyrazolo[1,5-α]pyrimidin-7-olate], the MIC in test [1] is under 100 µg/mL; in test [2], over 150 µg/mL; in test [3] it was over 150 µg/mL; in test [4] it was under 100 µg/mL; in [5], over 150 µg/mL; with Bacillus subtilis 168 it was over 150 µg/mL. For the same molecule, the MIC with Clostridium perfringens was over 150 µg/mL; in test [7] (setting [13]), under 150 µg/mL; in test [8] (setting [13]), under 100 µg/mL; in the test on Oral Candida (read-out: MIC values (μM)), under 100 µg/mL; in the test with Oral Candida (setting [14]), under 100 µg/mL; in test [9], under 150 µg/mL. In addition, the MIC is over 150 µg/mL in test [10]; under 150 µg/mL with Bacillus cereus 2; under 150 µg/mL in the test with Peel fungus; over 150 µg/mL with Diphtheria bacilli; under 150 µg/mL in test [11]; over 150 µg/mL in [12]. Also, in test [6] (dosage 30 mg/kg), the “Survival days” value was 2.4 days.

Regarding `Cc1nn2c([O-])cc(-c3ccc(Oc4ccccc4)cc3)nc2c1-c1ccc(F)cc1F.[Na+]` [Compound 10, Sodium 3-(2,4-difluorophenyl)-2-methyl-5-(4-phenoxyphenyl)pyrazolo[1,5-α]pyrimidin-7-olate], the MIC in [1] is under 100 µg/mL; in test [2], under 150 µg/mL; in [3], over 150 µg/mL; in [4], under 150 µg/mL; in test [5], under 100 µg/mL; with Bacillus subtilis 168 it was under 100 µg/mL. In addition, the MIC in the test with Clostridium perfringens was over 150 µg/mL; in test [7] (setting [13]) it was under 100 µg/mL; in test [8] (setting [13]) it was under 150 µg/mL; in the test with Oral Candida (setting [14]) it was under 150 µg/mL; in test [9] it was under 150 µg/mL; in [10], under 150 µg/mL. Also, the MIC is under 100 µg/mL in the test on Bacillus cereus 2; under 150 µg/mL in the test with Peel fungus; over 150 µg/mL with Diphtheria bacilli; under 100 µg/mL in test [11]; under 100 µg/mL in test [12]. For the same molecule, in [6] (dosage 25 mg/kg), the “Survival days” value amounted to 3.5 days.
